Results taken from EP4741401A1, “BENZOTHIAZOIMIDAZOLYL COMPOUND AND USE THEREOF” (ER Stress Research Institute, Inc., priority 2023, dated 2025).

Legend:
[1] = system: endoplasmic reticulum stress response induced by Tm; test: Suppression of endoplasmic reticulum stress response (ERSE2-UPRE-AARE-EGFP reporter fluorescence); type: cell-based; details: 293A reporter cells, incubated at 37°C overnight, read-out: Suppression rank of endoplasmic reticulum stress response
Method: A solution of the compound synthesized in "(1) Synthesis of benzothiazoimidazolyl compound" was appropriately diluted with a DMEM solution containing 10% fetal bovine serum (FBS), and the diluted solution was added to a 384-well assay plate at 10 µL/well. Next, 30 µL of a culture medium containing the reporter cells and 10 µL of the Tm solution were mixed, and the mixture was added to the 384-well assay plate at 40 µL/well such that the cell density was 18 × 10^3 cells/well, and the whole was incubated at 37°C overnight.
A multi-plate reader Citation 3 (Bio-Tek) was used to determine the EGFP fluorescence intensity (excitation wavelength: 485 nm, fluorescence wavelength: 528 nm) when the test compound was added. A smaller fluorescence intensity indicates more suppression of the increase in activity of the endoplasmic reticulum stress marker induced by Tm.
A "control" containing the Tm solution and, in place of the test compound solution, an equal volume of DMSO was subjected to the measurement of fluorescence intensity in a similar manner. In addition, a "background" containing a solution prepared in the same manner as for the Tm solution except that no Tm was added and containing, in place of the test compound solution, an equal volume of DMSO was subjected to the measurement of fluorescence intensity in a similar manner.
The fluorescence intensity was determined while the concentration of the test compound was varied, and the 50% effective concentration (IC50) of suppressing the endoplasmic reticulum stress response induced by Tm was calculated.

293A cells = test: Cytoprotection under endoplasmic reticulum stress conditions (Tm-induced cell death); type: cell-based; details: compound concentration inhibiting Tm-induced cell death by 50%, Tm 0.2 µg/mL, reporter cells
Method: The reporter cells same as those used in Example 1 were placed in each well of a 96-well assay plate and were treated with Tm at a final concentration of 0.2 µg/mL and the test compound. […]

Structure (SMILES)	IC50 [1] [nM]	IC50 (293A cells) [nM]
CS(=O)(=O)c1ccc2c(c1)sc1nc(-c3ccc(C(F)(F)F)cc3)cn12 [IBT-31, 7-(methylsulfonyl)-2-(4-(trifluoromethyl)phenyl)benzo[d]imidazo[2,1-b]thiazole]	≤ 10	10
CS(=O)(=O)c1ccc2c(c1)sc1nc(-c3ccc(Cl)c(Cl)c3)cn12 [IBT-32, 2-(3,4-dichlorophenyl)-7-(methylsulfonyl)benzo[d]imidazo[2,1-b]thiazole]	10 to 100	20
COc1cccc(-c2cn3c(n2)sc2cc(S(C)(=O)=O)ccc23)c1 [IBT-33, 2-(3-methoxyphenyl)-7-(methylsulfonyl)benzo[d]imidazo[2,1-b]thiazole]	10 to 100	70
CS(=O)(=O)c1ccc2c(c1)sc1nc(-c3ccc(F)cc3)cn12 [IBT-34, 2-(4-fluorophenyl)-7-(methylsulfonyl)benzo[d]imidazo[2,1-b]thiazole]	10 to 100	80
CNC(=O)CCc1ccc2c(c1)sc1nc(-c3ccc(Cl)cc3)cn12 [IBT-35, 3-(2-(4-chlorophenyl)benzo[d]imidazo[2,1-b]thiazol-7-yl)-N-methylpropanamide]	10 to 100	40
COc1cc(-c2cn3c(n2)sc2cc(S(C)(=O)=O)ccc23)ccc1Cl [IBT-36, 2-(4-chloro-3-methoxyphenyl)-7-(methylsulfonyl)benzo[d]imidazo[2,1-b]thiazole]	≤ 10	10
CNC(=O)CCc1ccc2c(c1)sc1nc(-c3ccc(C(F)(F)F)cc3)cn12 [IBT-37, N-methyl-3-(2-(4-(trifluoromethyl)phenyl)benzo[d]imidazo[2,1-b]thiazol-7-yl)propanamide]	10 to 100	30
CNC(=O)CCCS(=O)(=O)c1ccc2c(c1)sc1nc(-c3ccc(C(F)(F)F)cc3)cn12 [IBT-38, N-methyl-4-((2-(4-(trifluoromethyl)phenyl)benzo[d]imidazo[2,1-b]thiazol-7-yl)sulfonyl)butanamide]	10 to 100	90
CCN(CC)C(=O)CCc1ccc2c(c1)sc1nc(-c3ccc(C(F)(F)F)cc3)cn12 [IBT-39, N,N-diethyl-3-(2-(4-(trifluoromethyl)phenyl)benzo[d]imidazo[2,1-b]thiazol-7-yl)propanamide]	10 to 100	80
FC(F)(F)c1ccc(-c2cn3c(n2)sc2ccccc23)cc1 [IBT-40, 2-(4-(trifluoromethyl)phenyl)benzo[d]imidazo[2,1-b]thiazole]	10 to 100	100
C#CCOc1ccc(-c2cn3c(n2)sc2cc(S(C)(=O)=O)ccc23)cc1 [IBT-41, 7-(methylsulfonyl)-2-(4-(prop-2-yn-1-yloxy)phenyl)benzo[d]imidazo[2,1-b]thiazole 2,2,2-trifluoroacetate]	10 to 100	90
COc1ccc(-c2cn3c(n2)sc2cc(S(C)(=O)=O)ccc23)cc1 [IBT-43, 2-(4-methoxyphenyl)-7-(methylsulfonyl)benzo[d]imidazo[2,1-b] thiazole]	100 to 1000	170
CS(=O)(=O)c1ccc2c(c1)sc1nc(-c3ccc(Cl)cc3Cl)cn12 [IBT-44, 2-(2,4-dichlorophenyl)-7-(methylsulfonyl)benzo[d]imidazo[2,1-b]thiazole]	100 to 1000	450
CCOC(=O)c1ccc2c(c1)sc1nc(-c3ccc(Cl)cc3)cn12 [IBT-45, ethyl 2-(4-chlorophenyl)benzo[d]imidazo[2,1-b]thiazole-7-carboxylate]	100 to 1000	350
CCOc1ccc2c(c1)sc1nc(-c3ccc(Cl)cc3)cn12 [IBT-46, 2-(4-chlorophenyl)-7-ethoxybenzo[d]imidazo[2,1-b]thiazole]	100 to 1000	560
COc1cccc2sc3nc(-c4ccc(Cl)cc4)cn3c12 [IBT-51, 2-(4-chlorophenyl)-5-methoxybenzo[d]imidazo[2,1-b]thiazole]	> 1000	7720
CNC(=O)CCCNS(=O)(=O)c1ccc2c(c1)sc1nc(-c3ccc(C(F)(F)F)cc3)cn12 [IBT-52, N-methyl-4-((2-(4-(trifluoromethyl)phenyl)benzo[d]imidazo[2,1-b]thiazole)-7-sulfonamido)butanamide]	100 to 1000	420
CC(C)(C)OC(=O)NCCOCCNC(=O)CCc1ccc2c(c1)sc1nc(-c3ccc(C(F)(F)F)cc3)cn12 [IBT-53, tert-butyl (2-(2-(3-(2-(4-(trifluoromethyl)phenyl)benzo[d]imidazo[2,1-b]thiazol-7-yl)propanamido)ethoxy)ethyl)carbamate]	> 1000	4470
CCN(CC)C(=O)CCCS(=O)(=O)c1ccc2c(c1)sc1nc(-c3ccc(C(F)(F)F)cc3)cn12 [IBT-55, N,N-diethyl-4-((2-(4-(trifluoromethyl)phenyl)benzo[d]imidazo[2,1-b]thiazol-7-yl)sulfonyl)butanamide]	100 to 1000	660
C#CCOc1cc(-c2cn3c(n2)sc2cc(S(C)(=O)=O)ccc23)ccc1Cl [IBT-56, 2-(4-chloro-3-(prop-2-yn-1-yloxy)phenyl)-7-(methylsulfonyl)benzo[d]imidazo[2,1-b]thiazole]	100 to 1000	560
C#CCNC(=O)CCc1ccc2c(c1)sc1nc(-c3ccc(C(F)(F)F)cc3)cn12 [IBT-57]	> 1000	3800
CC(C)(C)OC(=O)NCCCOc1cc(-c2cn3c(n2)sc2cc(S(C)(=O)=O)ccc23)ccc1Cl [IBT-58, tert-butyl (3-(2-chloro-5-(7-(methylsulfonyl)benzo[d]imidazo[2,1-b]thiazol-2-yl)phenoxy)propyl)carbamate]	> 1000	3200
OCc1ccc2c(c1)sc1nc(-c3ccc(Cl)cc3)cn12 [IBT-59, (2-(4-chlorophenyl)benzo[d]imidazo[2,1-b]thiazol-7-yl)methanol]	100 to 1000	410
C#CCOCc1ccc2c(c1)sc1nc(-c3ccc(Cl)cc3)cn12 [IBT-60, 2-(4-chlorophenyl)-7-((prop-2-yn-1-yloxy)methyl)benzo[d]imidazo[2,1-b]thiazole 2,2,2-trifluoroacetate]	100 to 1000	900
C#CCCC1(CCNC(=O)CCc2ccc3c(c2)sc2nc(-c4ccc(C(F)(F)F)cc4)cn23)N=N1 [IBT-61, N-(2-(3-(but-3-yn-1-yl)-3H-diazirin-3-yl)ethyl)-3-(2-(4-(trifluoromethyl)phenyl)benzo[d]imidazo[2,1-b]thiazol-7-yl)propanamide]	> 1000	4160
C#CCCC1(CCOc2cc(-c3cn4c(n3)sc3cc(S(C)(=O)=O)ccc34)ccc2Cl)N=N1 [IBT-63, 2-(3-(2-(3-(but-3-yn-1-yl)-3H-diazirin-3-yl)ethoxy)-4-chlorophenyl)-7-(methylsulfonyl)benzo[d]imidazo[2,1-b]thiazole 2,2,2-trifluoroacetate]	100 to 1000	350
CCOc1ccc(-c2cn3c(n2)sc2cc(S(C)(=O)=O)ccc23)cc1 [IBT-64, 2-(4-ethoxyphenyl)-7-(methylsulfonyl)benzo[d]imidazo[2,1-b]thiazole]	100 to 1000	670
CC(C)(C)OC(=O)NCCCOc1ccc(-c2cn3c(n2)sc2cc(S(C)(=O)=O)ccc23)cc1 [IBT-66, tert-butyl (3-(4-(7-(methylsulfonyl)benzo[d]imidazo[2,1-b]thiazol-2-yl)phenoxy)propyl)carbamate]	100 to 1000	830
